According to paper PMC2752324 (Bioorganic & medicinal chemistry letters, 2008):

Molecular target: T1, tissue-nonspecific alkaline phosphatase (TNAP) (Homo sapiens, UniProt P05186)
T1 sequence (P05186 18-502 limits assumed): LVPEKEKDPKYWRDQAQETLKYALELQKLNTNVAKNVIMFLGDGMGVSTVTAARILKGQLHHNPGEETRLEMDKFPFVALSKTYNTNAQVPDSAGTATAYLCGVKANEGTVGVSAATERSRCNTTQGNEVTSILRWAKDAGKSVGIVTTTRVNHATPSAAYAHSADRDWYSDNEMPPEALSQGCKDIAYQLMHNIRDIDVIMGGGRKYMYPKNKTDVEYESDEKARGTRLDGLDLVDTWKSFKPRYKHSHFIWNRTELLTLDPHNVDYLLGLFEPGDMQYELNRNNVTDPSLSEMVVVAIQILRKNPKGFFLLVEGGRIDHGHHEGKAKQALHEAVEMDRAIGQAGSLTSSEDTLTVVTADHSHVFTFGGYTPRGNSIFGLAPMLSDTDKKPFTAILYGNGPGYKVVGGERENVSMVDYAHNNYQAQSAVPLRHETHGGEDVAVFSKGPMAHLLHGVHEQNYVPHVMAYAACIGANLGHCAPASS
Assay: TNAP luminescence-based inhibition assay
Assay type: biochemical

Row | improvement in potency (4 versus tricyclic derivative 3) | selectivity for TNAP (versus PLAP and GAPDH) | times more potent against TNAP (versus screening hit 1) | Structure (SMILES)
1 | 3 fold |  |  | O=C(c1[nH]nc2c1COc1ccccc1-2)N1CCCC1 [Compound 4]
2 |  | at least 2000 fold | approximately 200 times | O=C(NCCO)c1cc(-c2ccc(Cl)c(Cl)c2Cl)n[nH]1 [Compound 9v]
